Measured values from ChEMBL document CHEMBL5154648, “Antitumor activity of novel POLA1-HDAC11 dual inhibitors” (Eur J Med Chem, 2022).
The source made the active and inactive calls. The calls are words filed in the database; no cut-off is given here.

How the values were obtained:
H460-R9A = assay: Antiproliferative activity against human H460-R9A cells at 3.75 to 60 uM after 72 hrs by MTT assay; type: functional, cell-based; settings: dose 3.75-60 µM
[1] = Antiproliferative activity against human H460-R9A cells incubated for 24 hrs followed by incubating in drug-free medium for 48 hrs and measured by SRB assay; type: functional, cell-based
NCI-H460 [2] = assay: Antiproliferative activity against human NCI-H460 cells incubated for 24 hrs followed by incubating in drug-free medium for 48 hrs and measured by SRB assay; type: functional, cell-based
[3] = Antiproliferative activity against multi-drug resistant human A2780-DX cells incubated for 24 hrs followed by incubating in drug-free medium for 48 hrs and measured by SRB assay; type: functional, cell-based
[4] = Resistance index, ratio of IC50 for human A2780 cells to IC50 for A2780-DX cells; type: functional
A2780 = assay: Antiproliferative activity against human A2780 cells incubated for 24 hrs followed by incubating in drug-free medium for 48 hrs and measured by SRB assay; type: functional, cell-based
[5] = Resistance index, ratio of IC50 for human NCI-H460 cells to IC50 for H460-R9A cells; type: functional
NCI-H460 [6] = assay: Induction of cell cycle arrest in human NCI-H460 cells assessed as accumulation of cells at sub-G1 phase at 4.2 uM after 72 hrs by flow cytometry (reference value: 1.1%); type: functional
L-428 = assay: Antiproliferative activity against human L-428 cells incubated for 24 hrs followed by incubating in drug-free medium for 48 hrs and measured by SRB assay; type: functional, cell-based
NCI-H460 [7] = assay: Antiproliferative activity against human NCI-H460 cells at 7.4 uM assessed as reduction in PIN1 level and measured by Western blot analysis; type: functional, cell-based
[8] = Induction of cell cycle arrest in human H460-R9A cells assessed as accumulation of cells at S phase at 1.9 uM after 72 hrs by flow cytometry (reference value: 34.5%); type: functional
[9] = Induction of cell cycle arrest in human H460-R9A cells assessed as accumulation of cells at sub-G1 phase at 1.9 uM after 72 hrs by flow cytometry (reference value: 1.5%); type: functional
NCI-H460 [10] = assay: Induction of cell cycle arrest in human NCI-H460 cells assessed as accumulation of cells at S phase at 4.2 uM after 72 hrs by flow cytometry (reference value: 32.1%); type: functional
NCI-H460 [11] = assay: Induction of cell cycle arrest in human NCI-H460 cells assessed as accumulation of cells at G0/1 phase at 4.2 uM after 72 hrs by flow cytometry (reference value: 46.8%); type: functional
[12] = molecular target: T1, DNA polymerase alpha catalytic subunit (Homo sapiens) (UniProt P09884); assay: Inhibition of POLA1 in human NCI-H460 cells at 7.4 uM assessed as upregulation of p21 expression and measured by Western blot analysis; type: cell-based
T1 sequence (whole entry): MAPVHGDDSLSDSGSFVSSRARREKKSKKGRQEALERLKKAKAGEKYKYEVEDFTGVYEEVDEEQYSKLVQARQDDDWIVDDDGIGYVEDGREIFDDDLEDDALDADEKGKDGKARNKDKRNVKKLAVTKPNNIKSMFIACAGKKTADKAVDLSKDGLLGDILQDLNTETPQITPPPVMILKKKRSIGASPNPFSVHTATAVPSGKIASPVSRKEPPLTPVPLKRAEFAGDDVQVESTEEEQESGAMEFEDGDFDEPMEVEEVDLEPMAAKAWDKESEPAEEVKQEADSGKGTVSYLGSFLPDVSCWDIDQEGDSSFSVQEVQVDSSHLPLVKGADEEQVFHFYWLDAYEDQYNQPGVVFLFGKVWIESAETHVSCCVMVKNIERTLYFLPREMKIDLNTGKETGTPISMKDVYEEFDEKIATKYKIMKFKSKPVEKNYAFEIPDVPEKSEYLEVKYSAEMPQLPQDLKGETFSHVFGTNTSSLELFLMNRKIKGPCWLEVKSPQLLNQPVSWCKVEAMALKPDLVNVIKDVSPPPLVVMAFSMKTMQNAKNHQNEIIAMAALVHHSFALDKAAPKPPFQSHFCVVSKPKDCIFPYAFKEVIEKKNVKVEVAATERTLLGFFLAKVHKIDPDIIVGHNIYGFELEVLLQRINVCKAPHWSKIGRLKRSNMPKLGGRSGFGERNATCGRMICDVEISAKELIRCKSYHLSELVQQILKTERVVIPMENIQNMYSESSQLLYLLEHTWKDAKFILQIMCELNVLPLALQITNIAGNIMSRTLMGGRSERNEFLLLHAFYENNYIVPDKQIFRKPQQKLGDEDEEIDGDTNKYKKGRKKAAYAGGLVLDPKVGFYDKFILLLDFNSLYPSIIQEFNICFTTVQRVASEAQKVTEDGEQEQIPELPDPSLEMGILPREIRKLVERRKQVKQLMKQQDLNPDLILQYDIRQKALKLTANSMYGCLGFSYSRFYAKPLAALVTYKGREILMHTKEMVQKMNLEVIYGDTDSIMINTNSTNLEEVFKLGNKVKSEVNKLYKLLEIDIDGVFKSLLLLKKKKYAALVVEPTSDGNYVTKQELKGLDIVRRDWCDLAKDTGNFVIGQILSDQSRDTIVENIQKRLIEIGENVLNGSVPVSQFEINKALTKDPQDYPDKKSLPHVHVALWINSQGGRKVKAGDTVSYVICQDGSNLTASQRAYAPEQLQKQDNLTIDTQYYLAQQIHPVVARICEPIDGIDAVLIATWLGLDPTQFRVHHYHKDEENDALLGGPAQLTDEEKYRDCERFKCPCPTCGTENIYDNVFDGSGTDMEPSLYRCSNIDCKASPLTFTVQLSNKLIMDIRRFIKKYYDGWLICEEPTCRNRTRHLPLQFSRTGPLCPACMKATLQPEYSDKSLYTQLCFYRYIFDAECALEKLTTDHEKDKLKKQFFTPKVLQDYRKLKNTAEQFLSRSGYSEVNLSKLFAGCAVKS

[13] = Induction of cell cycle arrest in human H460-R9A cells assessed as accumulation of cells at G2/M phase at 1.9 uM after 72 hrs by flow cytometry (reference value: 15.4%); type: functional
NCI-H460 [14] = assay: Induction of cell cycle arrest in human NCI-H460 cells assessed as accumulation of cells at G2/M phase at 4.2 uM after 72 hrs by flow cytometry (reference value: 21.1%); type: functional
[15] = Induction of cell cycle arrest in human H460-R9A cells assessed as accumulation of cells at G0/1 phase at 1.9 uM after 72 hrs by flow cytometry (reference value: 50.1%); type: functional
NCI-H460 [16] = assay: Antiproliferative activity against human NCI-H460 cells at 7.4 uM assessed as reduction in p-ERK1/2 level and measured by Western blot analysis; type: functional, cell-based
NCI-H460 [17] = assay: Induction of DNA damage in human NCI-H460 cells at 7.4 uM assessed as increase in p-H2AX levels and measured by Western blot analysis; type: functional, cell-based

CCCCCCCCCCCCCCCCNNC(=O)c1cccs1
Activity (H460-R9A): Active

O=C(O)C=Cc1ccc(-c2ccc(OCC(=O)O)c(C34CC5CC(CC(C5)C3)C4)c2)cc1
IC50 [1]: > 10 µM | IC50 (NCI-H460 [2]): > 10 µM

O=C(O)C=Cc1ccc(-c2ccc(OCCCC(=O)NO)c(C34CC5CC(CC(C5)C3)C4)c2)cc1
IC50 [1]: 8.3 µM | IC50 (NCI-H460 [2]): 1.7 µM | IC50 [3]: 3.9 µM | Ratio IC50 [4]: 0.9 | IC50 (A2780): 4.2 µM | Ratio IC50 [5]: 4.9

CC(C)(Oc1ccc(-c2ccc(C=CC(=O)O)cc2)cc1C12CC3CC(CC(C3)C1)C2)C(=O)NO
IC50 [1]: 7.3 µM | IC50 (NCI-H460 [2]): 1.3 µM | Ratio IC50 [5]: 5.6

O=C(O)C=Cc1ccc(-c2ccc(OCCCCC(=O)NO)c(C34CC5CC(CC(C5)C3)C4)c2)cc1
IC50 [1]: 8.6 µM | IC50 (NCI-H460 [2]): 1.9 µM | IC50 [3]: 6.4 µM | Ratio IC50 [4]: 1.7 | IC50 (A2780): 3.6 µM | Ratio IC50 [5]: 4.5

O=C(O)C=Cc1ccc(-c2ccc(OCCC(=O)O)c(C34CC5CC(CC(C5)C3)C4)c2)cc1
IC50 [1]: > 10 µM | IC50 (NCI-H460 [2]): 10 µM | IC50 [3]: 23.8 µM | Ratio IC50 [4]: 2.38 | IC50 (A2780): 10 µM

O=C(CCCCCCC(=O)Nc1ccccc1)NO [VORINOSTAT]
Activity (NCI-H460 [6]): 1.8% | IC50 (L-428): 2.3 µM | Activity (NCI-H460 [7]): Active | IC50 [3]: 33 µM | Activity [8]: 14.7% | Activity [9]: 2.1% | Activity (NCI-H460 [10]): 11.7% | Activity (NCI-H460 [11]): 65.2% | inhibition [12]: Active | Activity [13]: 21% | Activity (NCI-H460 [14]): 23.1% | Activity [15]: 62.2% | Activity (NCI-H460 [16]): Active | Activity (NCI-H460 [17]): Active

O=C(O)C=Cc1ccc(-c2ccc(OCCCCCCCC(=O)NO)c(C34CC5CC(CC(C5)C3)C4)c2)cc1
IC50 [1]: 9.6 µM | IC50 (NCI-H460 [2]): 5.5 µM | Ratio IC50 [5]: 1.7

O=C(O)C=Cc1ccc(-c2ccc(OCCC(=O)NO)c(C34CC5CC(CC(C5)C3)C4)c2)cc1
IC50 [1]: 10.6 µM | IC50 (NCI-H460 [2]): 8.3 µM | Ratio IC50 [5]: 1.3
